Experiments:
Cdc7-ASK complex = target: T1, Cdc7-ASK complex (Homo sapiens, UniProt O00311); assay: ELISA system for measuring inhibition of Cdc7-ASK complex phosphorylation activity (GST-Mcm2 (1-130 a.a.) substrate, anti-Mcm2-phospho-S17 antibody); assay type: biochemical; conditions: for concentration-dependent inhibitory effect for Cdc7-ASK complex: ELISA, inhibitor dilution series, FIG. 8
T1 construct: made in house; host or cells: E. coli C600 lon-
Procedure: GST-Mcm2 (1-130 a.a.) and GST-Mcm2 (1-80 a.a.) were diluted to 5 μg/ml using 0.1 M carbonate buffer, pipetted at 50 μl/well in to each well of a microtiter plate for ELISA, and then sensitized overnight at 4° C. The sensitizing solution was removed, a blocking solution (1% BSA, 5% sucrose and 0.1% NaN3/PBS) was pipetted in to each well at 200 μl/well, and the plate was allowed to stand for about one hour at room temperature. The blocking solution was then completely removed. The plates were then air-dried in a draft chamber, and stored at 4° C. until use. GST-Mcm2 (1-130 a.a.) and GST-Mcm2 (1-80 a.a.) were immobilized on the inner walls of the microtiter plates by this procedure.
A recombinant Cdc7-ASK complex dilution series was prepared by diluting from one-fold (×1) to 64-fold in two-fold increments using a phosphorylation buffer. 50 μl aliquots of this solution were added to the wells of the immobilized plates (a protein phosphorylation reaction). After incubating at 30° C. for a fixed period of time, the phosphorylation reaction solution was discarded and each well was amply washed four or more times with PBS. […] The primary antibody reaction solution was then discarded and each well was amply washed four or more times with PBS. Anti-rabbit immunoglobulin antibody (secondary antibody, MBL) labeled with horseradish peroxidase (HRP) was then diluted 1000-fold with PBS and added to each well in 50 μl aliquots, then allowed to react for 30 to 60 minutes at room temperature (secondary antibody reaction). The secondary antibody reaction solution was then discarded and each well was washed four or more times with PBS. A coloring substrate solution was then added to each well in 50 μl aliquots, and color was developed for five to 20 minutes (coloring reaction). The coloring reaction was stopped by adding 50 μl aliquots of reaction stopping solution to each well, and the optical absorbance at 450 nm was measured using a microplate reader. […]

HA-huCdc7 (wild type) = target: T2, HA-huCdc7 (wild type) (human, UniProt O00311 14-574); assay: co-purification on glutathione Sepharose 4B from E. coli co-expression, SDS-PAGE with silver staining
T2 construct: also called HA-Cdc7
T2 sequence (O00311 other isoform, or with tags, fused parts or gaps): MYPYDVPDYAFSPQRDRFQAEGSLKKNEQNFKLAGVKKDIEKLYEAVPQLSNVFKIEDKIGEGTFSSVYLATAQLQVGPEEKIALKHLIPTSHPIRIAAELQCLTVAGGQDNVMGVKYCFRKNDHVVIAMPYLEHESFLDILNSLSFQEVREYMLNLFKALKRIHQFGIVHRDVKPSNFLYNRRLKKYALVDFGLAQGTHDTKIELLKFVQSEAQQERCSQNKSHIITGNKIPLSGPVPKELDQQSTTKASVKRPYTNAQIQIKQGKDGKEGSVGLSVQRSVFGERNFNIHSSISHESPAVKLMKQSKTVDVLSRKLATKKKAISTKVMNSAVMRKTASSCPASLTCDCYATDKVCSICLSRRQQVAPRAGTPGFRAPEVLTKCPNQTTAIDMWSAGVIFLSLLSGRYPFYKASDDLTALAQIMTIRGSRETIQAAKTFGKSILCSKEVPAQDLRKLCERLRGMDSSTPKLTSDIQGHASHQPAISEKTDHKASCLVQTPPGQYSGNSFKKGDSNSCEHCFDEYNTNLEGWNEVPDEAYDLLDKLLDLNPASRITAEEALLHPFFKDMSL

T1 sequence (O00311 14-574 limits assumed, one chain of several): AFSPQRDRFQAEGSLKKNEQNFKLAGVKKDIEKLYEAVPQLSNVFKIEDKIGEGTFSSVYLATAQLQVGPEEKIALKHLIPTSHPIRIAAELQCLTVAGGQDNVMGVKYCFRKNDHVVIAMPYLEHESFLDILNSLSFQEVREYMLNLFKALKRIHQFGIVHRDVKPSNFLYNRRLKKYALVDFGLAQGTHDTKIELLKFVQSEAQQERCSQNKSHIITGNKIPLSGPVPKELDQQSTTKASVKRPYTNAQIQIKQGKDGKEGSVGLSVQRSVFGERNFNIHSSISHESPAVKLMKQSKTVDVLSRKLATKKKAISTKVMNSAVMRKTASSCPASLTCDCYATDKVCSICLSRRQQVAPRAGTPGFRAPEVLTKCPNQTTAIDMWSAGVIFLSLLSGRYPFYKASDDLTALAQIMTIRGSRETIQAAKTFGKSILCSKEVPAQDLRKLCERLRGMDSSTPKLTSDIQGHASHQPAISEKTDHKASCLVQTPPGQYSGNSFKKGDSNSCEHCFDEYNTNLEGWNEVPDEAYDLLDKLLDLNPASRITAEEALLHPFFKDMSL

| Molecule | IC50 (Cdc7-ASK complex) [nM] | concentration-dependent inhibitory effect for Cdc7-ASK complex (Cdc7-ASK complex) | binding result (HA-huCdc7 (wild type)) |
| --- | --- | --- | --- |
| COC(=O)[C@@]1(O)C[C@H]2O[C@]1(C)n1c3ccccc3c3c4c(c5c6ccccc6n2c5c31)C(=O)NC4 [K-252a] | 2000 | concentration-dependent | – |
| CC[C@H](CO)Nc1nc(NCc2ccccc2)c2ncn(C(C)C)c2n1 [Roscovitine] | – | not observed | – |
| GST-TAT-ASK(minimum) (other, also called GST-ASK; partial ASK) YGRKKRRQRRRDIRYYIEQKKKELYLLKKSSTSVRDGGKRVGSGAQKTRTGRLKKPFVKVEDMSQLYRPFYLQLTNMPFINYSIQKPCSPFDVDKPSSMQKQTQVKLRIQTDGDKYGGTSIQLQLKEKKKKGYCECCLQKYEDLETHLLSEQHRNFAQSNQYQVVDDIVSKLVFDFVEYEKDTPKKK | – | – | binds |
